The IC50 is the concentration needed to halve the response being measured.

Values joined by “and” are separate entries in the source; they are usually repeats but may differ in a detail not shown here. Equal entries are not always repeated. Where two headings read alike, the source gives them in different places. Marks after values point to notes of the source that are not given here.

For test [1], the system named is CCRF-CEM/VM1. Kind of test: cells. In kind it is cell-based, human. The protocol: (§1) The drug-resistant cell lines were continuously cultured in the presence of the selecting agent, AD, DX, VBL or VM to maintain the drug resistant phenotypes. […] All cells were cultured in RPMI 1640-10% FBS at 37° C. 5% CO2 (see below).
(§2) The cells were cultured at an initial density of 5×10^4 cells/mL. They were maintained in a 5% CO2-humidified atmosphere at 37° C. in RPMI-1640 medium (GIBCO-BRL, Gaithersburg, Md.) containing penicillin (100 U/mL), streptomycin ([…]) (GIBCO-BRL) and 10% heat inactivate fetal bovine serum. Culture for cell suspension (such as for CCRF-CEM, P388 and sublines), were performed by the XTT-microculture tetrazonium method (Scudiero, D. A. et al., Cancer Res. 1988, 48, 4827-4833) in duplicate in 96-well microtiter plates.
(§3) 2′,3′-Bis(methoxy-4-nitro-5-sufophenyl)-5-[(phenylamino)carbonyl]2H-tetrazolium hyudroxide (XTT) was prepared at 1 mg/mL in prewarmed (37° C.) medium without serum. Phenazine methosulfate (PMS) and fresh XTT were mixed together to obtain 0.025 mM PMS-XTT solution (25 μL of the stock 5 mM PMS was added per 5 mL of 1 mg/mL XTT). Following a 72 h incubation, 50 μL of the assay aliquots were added to each well of the cell culture. After incubation at 37° C. for 4 h, absorbance at 450 nm and 630 nm was measured with a microplate reader (EL340, Bio-Tek Instruments, Inc., Winooski, Vt.).

The subject of test [2] is CCRF-CEM/VBL100. The test is described as follows: cells. It is filed as cell-based, human. As for the experimental part: as §1, §2, §3
Test [3] has as its system DC-3F hamster lung fibroblast cell line. Kind of test: SRB cytotoxicity, DC-3F. It is filed as cell-based. Particulars: Table 3; read-out: IC50. The protocol: (§4) The DC-3F hamster lung fibroblast cell line and its actinomycin D-selected sublines (DC-3F/ADII and DC-3F/ADX) were obtained from the Memorial Sloan-Kettering Cancer Center (MSKCC).
as §1
(§5) The cytotoxicity of the drug toward the monolayer cell cultures (such as DC-3F, MCF-7, SK-N-As and sublines) was determined in 96-well microtiter plates by the SRB method as described by Skehan and co-workers (Skehan, P., et al., J. Natl. Cancer Inst. 1990, 82, 1107-1112) for measuring the cellular protein content. Cultures were fixed with trichloroacetic acid and then stained for 30 min with 0.4% suforhodamine B dissolved in 1% acetic acid. Unbound dye was removed by acetic acid washes, and the protein-bound dye was extracted with an unbuffered Tris base (tris(hydroxy-methyl)aminomethane) for determination of absorbance at 570 nm in a 96-well microtiter plate reader. The experiments were carried out in duplicate. Each run entailed six to seven concentrations of the tested drugs. Data were analyzed with the median-effect plot (Chou, T.-C. & Talalay, P. T. (1984) Adv. Enzyme Regul. 22, 27-55) using a previously described computer program (Chou, J., & Chou T.-C. 1987, Dose-effect analysis with microcomputers: Quantitation of ED50, synergism, antagonism, low-dose risk, reception-ligand binding and enzyme kinetics, IBM-PC software and manual, Biosoft, Cambridge, U.K.).

For test [4], the system named is DC-3F/ADX. Kind of test: cells. It is filed as cell-based, hamster. To be noted: Table 3; read-out: IC50. The protocol: as §4, §1, §5
(§6) Concerning Table 3, experiments were carried out using the cell lines DC-3F (parent hamster lung cells), DC-3F/ADII (moderate multidrug-resistant (MDR) cells) and DC-3F/ADX (very strong MDR cells).

Test [5] concerns DC-3F/ADII. Kind of test: SRB cytotoxicity, DC-3F/ADII. In kind it is cell-based, hamster. To be noted: Table 3; read-out: IC50. As for the experimental part: as §4, §1, §5, §6
In test [6] the test system is CCRF-CEM human T-cell acute lymphoblastic leukemia cell line. The test is described as follows: XTT cytotoxicity (cell growth inhibition), CCRF-CEM. The protocol: as §4, §1, §2, §3
For orientation: Tetrazolium dyes change colour on reduction, which living cells bring about.

The mark [7] stands for this setting: Table 2, CCR-CEM/VM-1, read-out: IC50.
Setting [8] is: Table 2A, Topo II gene mutated cell line, read-out: IC50 (C).
[9] abbreviates: Table 6, single determinations, read-out: IC50.
Where [10] appears, read: Table 2, CCRF-CEM/VLB, read-out: IC50.
The mark [11] stands for this setting: Table 2A, MDR cell line, read-out: IC50 (B).
The mark [12] stands for this setting: Table 7, CEM/VBL, read-out: IC50.
Setting [13] is: read-out: IC50 (A), Table 2A, parent cell line.
The mark [14] stands for this setting: Table 6, read-out: IC50 (mean ± of determinations, in parentheses).

With `CC(=Cc1csc(C)n1)C1CC=CCCCC(C)C(O)C(C)C(O)C(C)(C)C(O)CC(=O)O1` (stereo not drawn) [#2], the IC50 in test [1] (setting [7]) was 43.9 µM; in test [1] (setting [8]), 43.9 µM; in test [1] (setting [9]) it was 43.9 µM; in test [2] (setting [10]), 6.28 µM; in test [2] (setting [11]), 6.28 µM; in test [2] (setting [9]), 6.28 µM. For the same compound, the IC50 amounted to 6.28 µM in test [2] (setting [12]); 10.3 µM in test [3]; 4.81 µM in test [4]; 4.6 µM in test [5]; 14.2 µM in test [6] (Table 2); 14.2 µM in test [6] (Table 6, single determinations). The IC50 in test [6] (Table 7, CEM) was 14.2 µM; in test [6] (setting [13]), 14.2 µM. Besides, the “(C)/(A) ratio (fold resistance >1, collateral sensitivity <1)” value in test [1] (Table 2A) is given as “(309)^a”. Also, in test [2] (Table 2A), the “(B)/(A) ratio (fold resistance >1, collateral sensitivity <1)” value is reported as “(0.44)^b”.
Regarding `CC(=Cc1csc(C)n1)C1CC2OC2CC=CCCCCC(C)(C)CCC(=O)O1` (stereo not drawn) [#3], the IC50 came to 11.6 µM in test [1] (setting [7]); 11.6 µM in test [1] (setting [8]); 11.6 µM in test [1] (setting [9]); 22.4 µM in test [2] (setting [10]); 22.4 µM in test [2] (setting [11]); 22.4 µM in test [2] (setting [9]). The IC50 in test [2] (setting [12]) was found to be 22.4 µM; in test [3] it was 9.52 µM; in test [4], 0.972 µM; in test [5] it was 3 µM; in test [6] (Table 2) it was 272 µM; in test [6] (Table 6, single determinations), 272 µM. The half-inhibitory concentration (IC50) in test [6] (Table 7, CEM) came out at 272 µM; in test [6] (setting [13]), 272 µM. In test [1] (Table 2A), the “(C)/(A) ratio (fold resistance >1, collateral sensitivity <1)” value was “(0.043)^b”. The “(B)/(A) ratio (fold resistance >1, collateral sensitivity <1)” value in test [2] (Table 2A) is reported as “(0.082)^b”.
As to `C/C(=C\c1csc(C)n1)[C@@H]1C[C@@H]2O[C@@H]2CCC[C@H](C)[C@H](O)[C@@H](C)C(=O)C(C)(C)[C@@H](O)CC(=O)O1` [EPOTHILONE A NATURAL, epothilone A], the IC50 in test [1] (setting [7]) is 0.0034 µM; in test [1] (setting [14]) it was 0.00613 µM; in test [1] (setting [9]) it was 0.006 µM and 0.00625 µM; in test [2] (setting [10]) it was 0.0272 µM; in test [2] (setting [14]) it was 0.02 µM; in test [2] (setting [9]), 0.0211 µM and 0.0189 µM. Also, the IC50 in test [3] is 0.00368 µM; in test [4], 0.0533 µM; in test [5] it was 0.0124 µM; in test [6] (Table 2) it was 0.0035 µM; in test [6] (Table 6, single determinations) it was 0.0024 µM and 0.0031 µM; in test [6] (read-out: IC50 (mean ± of determinations, in parentheses), Table 6) it was 0.0027 µM. The “relative resistance (fold) vs parent cell line” value in test [1] (Table 6) was “(2.3X)”; in test [2] (Table 6), “(7.4X)”.
With `C/C(=C\c1csc(C)n1)[C@@H]1C[C@@H]2O[C@@H]2CCC[C@H](C)[C@H](O)[C@@H](C)C(=O)C(C)(C)[C@@H](O)CC(=O)O1` [EPOTHILONE A SYNTHETIC, epothilone A], the IC50 in test [1] (setting [7]) amounted to 0.0034 µM; in test [2] (setting [10]) it was 0.0203 µM; in test [2] (Table 5, CCRF-CEM/VLB, single determinations, read-out: IC50), 0.015 µM; in test [3] it was 0.00354 µM; in test [4], 0.07 µM; in test [5], 0.0132 µM. In addition, the concentration for half-maximal inhibition (IC50) was found to be 0.0029 µM in test [6] (Table 2) and 0.0021 µM in test [6] (Table 5, single determinations).
